Results from US10744127B2, “MDR-reversing 8-hydroxy-quinoline derivatives” (MAGYAR TUDOMÁNYOS AKADÉMIA TERMÉSZETTUDOMÁNYI KUTATÓKÖZPONT, priority 2016, dated 2020).
Where two headings read alike, the source gives them in different places.

How the values were obtained:
[1] = test system: P-gp-expressing MES-SA/Dx5 cells; experiment: P-gp switch assay (Calcein AM); assay type: cell-based, human; settings: for Fraction of P-gp-negative cells (P3) in the population / Fraction of P-gp-positive cells (P4) in the population: MES-SA/Dx5, single dose at IC20 (killing 80% of the cells), surviving population at 80% confluence, Calcein AM; for Loss of P-gp expression in MES-SA/Dx5 cells: single treatment (FIG. 1, Table 6)
Protocol: One million P-gp-expressing MES-SA/Dx5 cells were plated in a T25 cell culture flask. After 24 hours the compound of interest was added directly to the cells at a concentration corresponding to the IC20 value (killing 80% of the cells). After 5 days the culture media was removed, the cells were washed with PBS and the culture medium was exchanged. Cells were monitored daily and the recovery was recorded. The medium was changed every 5 days until the confluence of the cells reached 80%. At 80% confluence the cells were removed by gentle trypsinization, counted by an automated cell counter and stained with Calcein AM, a cellular dye able to detect the function of P-gp (Homolya 1993). P-gp-positivity was evaluated based on the ability of P-gp-expressing cells to extrude Calcein AM.

[2] = test system: MES-SA and multidrug-resistant MES-SA/Dx5 cell line; experiment: Selective toxicity (ratio of IC50 in MES-SA to IC50 in MES-SA/Dx5) and activity index; assay type: cell-based, human
Text: Compounds having P-gp potentiated MDR-selective activity can be characterized by their inhibitory concentration (IC) with regard to a specific cancer cell line. Usually the IC value is given at a certain percentage ratio of non-inhibited molecules or surviving cells. For example an IC20 value of a compound on a cell line means that at this inhibitory concentration of the compound 80% of the cells are killed whereas 20% of the cells are still viable. A further characteristic of MDR-selective drugs is the selectivity ratio (SR), which is the ratio of the IC value measured in a non-multidrug resistant cell line to (i.e. divided by) the IC value measured in the corresponding transformed, multidrug-resistant cell line. The inverse value, the resistance ratio (RR) is calculated as the ratio of a compound's IC value against a multidrug resistant cell line divided by the parallel IC value of the same compound against a control non-multidrug resistant cell line. The Activity Index (AI) is calculated here as the ratio of the compound's selectivity ratio (SR) and the compound's IC50 value against the resistant cell. The AI reflects the level of simultaneous toxicity and selectivity towards multidrug-resistant cancer cells.
(§1) The human uterine sarcoma cell line MES-SA and its doxorubicin resistant counterpart MES-SA/Dx5 were obtained from ATCC (MES-SA: No. CRL-1976™, MES-SA-Dx5: No. CRL-1977™). MES-SA/Dx5 cells express high levels of P-gp, and therefore are multidrug resistant (MDR). Cells were cultured in DMEM supplemented with 10% FBS, 5 mmol/L glutamine and 50 unit/mL penicillin and streptomycin (Life Technologies).
(§2) Cell survival was measured by the PrestoBlue® Cell Viability Reagent (Life Technologies, USA). Cells were seeded in 100 μl medium at a density of 5000 cells/well in 96-well plates; the serially diluted drug was added the following day. Cells were then incubated for 72 hours at 37° C. in 5% CO2; the drug containing medium was removed, and the PrestoBlue® reagent was added according to the manufacturer's instructions. Fluorescence of the cells was measured by a Perkin Elmer EnSpire multimode plate reader or Perkin Elmer Victor X3 microplate reader. Data were background corrected and normalized to untreated cells. Curves were fitted with the help of Prism software using the sigmoidal dose-response model. Curve fit statistics were used to determine IC50 values. Differences between the IC50 values of the respective cell lines were analyzed by two-sided […] unpaired Student's t test and results were considered statistically significant at a P value of <0.05 (*) or 0.01 (**).
Selectivity towards multidrug-resistant cells is expressed as the ratio of the IC50 value measured in the parental MES-SA and multidrug-resistant MES-SA/Dx5 cell line (Selectivity Ratio, SR).
A novel characteristic of the compounds presented in this invention is that they exert their selective cytotoxicity at low IC50 values. Simultaneous toxicity and selectivity towards multidrug-resistant cancer cells is reflected by the Activity Index (AI) of the compounds, which is the ratio of the selectivity ratio (SR) and the IC50 value on the resistant cell line.

[3] = test system: A431 and A431-B1 cell lines; experiment: Selective toxicity in A431 and A431-B1 cell lines; assay type: cell-based, human; settings: A431 versus P-gp-transfected A431-B1
Protocol: as §2
(§3) Data on selective toxicity (expressed as Selectivity Ratio, SR) in two MDR models engineered by retroviral transfection of P-glycoprotein (A431/A431-B1 and MDCK II/MDCK II B1 cell lines) are presented in Table 3 and Table 4.
(§4) A431 is a human epidermoid carcinoma cell line. Its derivative, the A431-B1 cell line expresses P-gp due to retroviral transfection of the mdr1 gene Türk, D. et al (Türk, D. et al., 2009). MDCK II is a canine kidney cell line. MDCK II B1 was created by inserting the mdr1 gene with transposons [Pape V F S et al. 2015] Both cell express P-gp stably, and show a stable MDR phenotype. Culture conditions were identical as in the case of MES-SA cells.

[4] = WO2010138686 and Türk et al. 2009; cited from earlier work
MES-SA/Dx5 cell line = experiment: Cytotoxicity, PrestoBlue cell viability assay, MES-SA/Dx5; assay type: cell-based; settings: Homo sapiens
Protocol: as §1, §2

MES-SA cell line = experiment: Cytotoxicity, PrestoBlue cell viability assay, parental MES-SA; assay type: cell-based; settings: Homo sapiens; parental MES-SA cell line (Table 2a)
Protocol: as §1, §2

[5] = test system: MDCK II and MDCK II B1 cell lines; experiment: Selective toxicity towards MDCK II and MDCK II B1 cell lines; assay type: cell-based, canine; settings: MDCK II versus MDCK II B1
Protocol: as §2, §3, §4

[6] = test system: ABCB1-overexpressing and parental HEK293 cells; settings: cited from earlier work
[7] = test system: MES-SA and MES-SA/Dx5 cells; experiment: Selective toxicity in the presence of the P-gp inhibitor tariquidar; assay type: cell-based, human; settings: for SR (TQ): selectivity ratio in the presence of tariquidar (1 μM); for Selective toxicity in the presence of P-gp inhibitors: tariquidar
Protocol: In the presence of tariquidar (an inhibitor of P-gp function), the toxicity of the compounds selectively diminishes in multidrug-resistant MES-SA/Dx5 cells, while the toxicity is unchanged against parental MESSA cells, which is reflected by a decrease in the selectivity ratio (SR (TQ)).
To investigate the contribution of P-glycoprotein to the cytotoxic effect of a compound, cell survival was measured in the presence of the P-glycoprotein inhibitor tariquidar (1 μM). Tariquidar (CAS 206873-63-4) can be obtained e.g. from Selleck, Houston, USA.

MES-SA/Dx5 cells = experiment: Sensitivity of MES-SA/Dx5 cells to doxorubicin after a single treatment; assay type: cell-based, human; settings: after treatment with a single dose (FIG. 3)
Text: The above treatment with compounds of the general Formula I results in a new, stable phenotype, with the complete resensitization of cells to conventional chemotherapy consisting of P-glycoprotein substrates such as doxorubicin (FIG. 3).
Curves show the sensitivity of MES-SA/Dx5 cells (P-gp overexpressing cell line established from MES-SA) to doxorubicin before and after treatment with a single dose of a state of the art compound (NSC693872) and two compounds relating to this invention (Example compounds No. 9 and No. 17). The sensitivity of MES-SA cells is shown as a reference (P-gp-negative parental cell line). […] (Values indicate the IC50 values (μM) derived from the cytotoxicity curves).

[8] = MES-SA / MES-SA/Dx5, without tariquidar (Table 5)
[9] = MES-SA/Dx5 (Table 2b), read-out: IC50 (μM) Dx5
[10] = Mes-sa/Dx5 cell line, PrestoBlue assay, 72 hours (Table 1), read-out: IC50
[11] = multidrug-resistant MES-SA/Dx5 cell line (Table 2a), read-out: IC50 (nM) in MES-SA/Dx5 cell line

melting point [°C]	SMILES	Fraction of P-gp-negative cells (P3) in the population [1] [%]	Fraction of P-gp-positive cells (P4) in the population [1] [%]	Loss of P-gp expression in MES-SA/Dx5 cells [1]	SR ([2]; MES-SA / MES-SA/Dx5 (Table 2b))	SR [2, 8]	Selectivity Ratio (SR) (A431/A431-B1) [3]	selectivity [4]	IC50 (MES-SA/Dx5 cell line; [9]) [µM]	IC50 (MES-SA/Dx5 cell line; [10]) [µM]	IC50 (MES-SA/Dx5 cell line; [11]) [µM]	IC50 (MES-SA cell line) [nM]	Selectivity Ratio (SR) (MDCK II/MDCK II B1) [5]	selectivity [6]	SR (TQ) [7]	Selective toxicity in the presence of P-gp inhibitors [7]	Resensitization of MES-SA/Dx5 cells to doxorubicin (MES-SA/Dx5 cells)
	Cl.Oc1c(CN2CCCC2)ccc2cccnc12 [NSC693871, 7-(pyrrolidin-1-ylmethyl)quinolin-8-ol hydrochloride, reference compound]	9.1	90.9	insignificant loss	4.2	4.2	3.8	about 8.48	1.47	1.47	1.47	6250	4.4	~10	1.4	retain a partial selective toxicity	
191 to 193	COc1ccc(CNCc2cc([N+](=O)[O-])c3cccnc3c2O)cc1 [Example 27, 7-(((4-Methoxybenzyl)amino)methyl)-5-nitroquinolin-8-ol]				19.9	19.9	12.6		0.31		0.31	6090	8.0		1.6		
	CCN(CC)Cc1ccc2cccnc2c1O [NSC693872, 7-(N,N-diethylaminomethyl)quinolin-8-ol, reference compound]	7.8	92.2	insignificant loss	4.9	4.9	1.9	~3.90	1.58	1.58	1.58	7810	3.1		2.6	retain a partial selective toxicity	not sufficient to influence the resistance of the cells to doxorubicin
133 to 136	COc1ccc(CNCc2cc(Br)c3cccnc3c2O)cc1OC [Example 25, 5-Bromo-7-(((3,4-dimethoxybenzyl)amino)methyl)quinolin-8-ol]	92.30	7.70		22.3	22.3			0.13	0.131	0.131	2910	9.4		1.6		
69 to 71	C/C(=N\Nc1ccc2ccc(CN3CCCCC3)c(O)c2n1)c1ccccn1 [Example 3, (E/Z)-7-(Piperidin-1ylmethyl)-2-(2-(1-(pyridin-2-yl)ethylidene)hydrazinyl)quinolin-8-ol]	88.6	11.40			16.2	14.4				0.727	11300	9.5		1.5		
204 to 206	COc1ccc(CNCc2cc([N+](=O)[O-])c3cccnc3c2O)cc1OC [Example 30, 7-(((3,4-Dimethoxybenzyl)amino)methyl)-5-nitroquinolin-8-ol]					19.3	11.5				1.22	23800	16.1		1.3		
	Oc1c(C2NCCc3sccc32)cc(Cl)c2cccnc12 (stereo not drawn) [Example 17, 5-Chloro-7-(4,5,6,7-tetrahydrothieno[3,2-c]pyridin-4-yl)quinolin-8-ol]						12.6										sufficient to resensitize MES-SA/Dx5 cells to doxorubicin
136 to 139	COc1ccc(CNCc2cc(Cl)c3cccnc3c2O)c(OC)c1 [Example 26, 5-Chloro-7-(((2,4-dimethoxybenzyl)amino)methyl)quinolin-8-ol]				17.6	17.6	11.2		0.13	0.133	0.13	2260	8.0		1.7		
